Experiments:
[1] = Phase I dose-escalation study, maximum tolerable dose; conditions: orally once daily in cycles of 28 days
Method: Plasma samples for pharmacokinetic (“PK”) analysis were collected on day 1 and day 8 or day 15 of cycle 1. Fluorodeoxyglucose positron emission tomography (“FDG-PET”) was performed at baseline and on-treatment.

[2] = molecular target: T1, mouse Bcrp1 (Mus musculus, UniProt Q7TMS5); experiment: Transport assay in Bcrp1-MDCKII cell monolayers; assay type: in vitro ADME; conditions: 2-hour incubation
T1 construct: host or cells: Bcrp1-MDCKII (canine kidney)
T1 sequence (Q7TMS5 whole entry): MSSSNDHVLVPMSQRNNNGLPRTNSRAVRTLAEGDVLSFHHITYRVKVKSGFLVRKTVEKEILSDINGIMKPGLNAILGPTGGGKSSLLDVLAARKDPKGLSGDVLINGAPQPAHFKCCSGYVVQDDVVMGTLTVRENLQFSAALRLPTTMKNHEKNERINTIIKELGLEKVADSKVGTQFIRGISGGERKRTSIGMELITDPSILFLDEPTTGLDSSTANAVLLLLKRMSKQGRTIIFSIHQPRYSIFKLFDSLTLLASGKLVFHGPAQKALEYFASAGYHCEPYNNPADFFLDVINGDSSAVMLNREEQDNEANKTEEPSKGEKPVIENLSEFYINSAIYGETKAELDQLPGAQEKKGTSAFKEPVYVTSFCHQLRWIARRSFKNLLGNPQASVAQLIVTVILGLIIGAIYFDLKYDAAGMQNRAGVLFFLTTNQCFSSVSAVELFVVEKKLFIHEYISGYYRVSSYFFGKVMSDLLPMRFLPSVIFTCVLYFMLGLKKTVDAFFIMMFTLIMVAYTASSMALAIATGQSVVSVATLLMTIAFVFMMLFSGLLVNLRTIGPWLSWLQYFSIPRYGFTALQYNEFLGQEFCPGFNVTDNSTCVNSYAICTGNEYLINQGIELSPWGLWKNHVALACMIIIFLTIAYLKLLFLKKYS
Method: MDR1-MDCKI cells were licensed from the NCI (National Cancer Institute, Bethesda, Md.) and Bcrp1-MDCKII, BCRP-MDCKII and Mdr1a-LLC-PK1 cells were obtained from the Netherlands Cancer Institute (Amsterdam. The Netherlands). […] The compound was dissolved in transport buffer consisting of Hank's balanced salt solution (HBSS) with 10 mM HEPES (Invitrogen Corporation, Grand Island, N.Y.). Lucifer Yellow (Sigma-Aldrich, St. Louis, Mo.) was used as the paracellular and monolayer integrity marker. […] The efflux ratio (ER) was calculated (Papp, B-A/Papp, A-B).

[3] = test system: pS6; experiment: Modulation of pS6 in the brain of healthy mice; assay type: in vivo, Female CD-1 mice; conditions: single oral dose 25 mg/kg
Method: Inhibition of the PI3K pathway was assessed in the brain of healthy mice through measurement of two markers, pAkt and pS6. […] Brains and plasma were collected at 1 and 6 hours post-dose, from 3 animals at each time point. […] For PD analysis, cell extraction buffer (Invitrogen, Camarillo, Calif.) containing 10 mM Tris pH 7.4, 100 mM NaCl, 1 mM EDTA, 1 mM EGTA, 1 mM NaF, 20 mM Na4P2O7, 2 mM Na3VO4, 1% Triton X-100, 10% glycerol, 0.1% SDS, and 0.5% deoxycholate was supplemented with phosphatase, protease inhibitors (Sigma, St. Louis, Mo.) and 1 mM PMSF and added to frozen brain biopsies. Brains were homogenized with a small pestle (Konte Glass Company, Vineland, N.J.), sonicated briefly on ice, and centrifuged at 20,000 g for 20 minutes at 4° C. Protein concentration was determined using BCA protein assay (Pierce, Rockford, Ill.). Proteins were separated by electrophoresis and transferred to NuPage nitrocellulose membranes (Invitrogen, Camarillo, Calif.). Licor Odyssey Infrared detection system (Licor, Lincoln, Nebr.) was used to assess and quantify protein expression. […] The differences in marker levels between the treated and control mice were evaluated using the Student's t-test (Prism 5, GraphPad).

[4] = MALDI imaging of brain distribution, GS2 orthotopic model; assay type: in vivo, female nude mice; conditions: 15 mg/kg PO, 1 hour post dose
Method: Mice were euthanized at 1 and 6 hours post-dose via exsanguination by perfusion under anesthesia. Brains were excised, flash frozen in liquid N2 and stored in a −80° C. freezer until analyzed. Fresh frozen tissue sections were obtained on a cryomicrotome (Leica CM3050S, Buffalo Grove, Ill.) at 12 μm thickness and thaw-mounted onto indium tin oxide coated glass slides (Bruker Daltonics, Billerica, Mass.). Tissue sections were an analyzed by imaging MALDI MS, providing signal intensities (and not absolute quantitation), followed by cresyl violet staining for histological interrogation.
For MALDI MAS analysis, a 40 mg/mL solution of 2,5-dihydroxybenzoic acid (Sigma-Aldrich, St. Louis, Mo.) was prepared in methanol:water (70:30 v/v). […] Matrix solution was homogenously spray-coated onto the tissue using a HTX TM-Sprayer (HTX technologies. Chapel Hill, N.C.). Matrix-coated tissue sections were transferred to the MALDI mass spectrometer (SolariX 7T FT-ICR, Bruker Daltonics, Bremen, Germany) for imaging analysis. […] Laser intensity and number of shots were optimized for sensitivity of the parent drug (1200 shots) with ion detection collected over the mass range of m/z 150-3000.
Following completion of the imaging experiments, matrix coaling was removed by rinsing the glass slide in 100% methanol for 30 seconds or until the entire matrix was visibly removed. […]

[5] = Solubility in mono- and ternary-solvent systems; assay type: physicochemical; conditions: 50° C.
[6] = molecular target: AKT1 (Homo sapiens, UniProt P31749); experiment: biochemical; conditions: read-out: % inhib
Sequence of AKT1 (P31749 whole entry, species assumed): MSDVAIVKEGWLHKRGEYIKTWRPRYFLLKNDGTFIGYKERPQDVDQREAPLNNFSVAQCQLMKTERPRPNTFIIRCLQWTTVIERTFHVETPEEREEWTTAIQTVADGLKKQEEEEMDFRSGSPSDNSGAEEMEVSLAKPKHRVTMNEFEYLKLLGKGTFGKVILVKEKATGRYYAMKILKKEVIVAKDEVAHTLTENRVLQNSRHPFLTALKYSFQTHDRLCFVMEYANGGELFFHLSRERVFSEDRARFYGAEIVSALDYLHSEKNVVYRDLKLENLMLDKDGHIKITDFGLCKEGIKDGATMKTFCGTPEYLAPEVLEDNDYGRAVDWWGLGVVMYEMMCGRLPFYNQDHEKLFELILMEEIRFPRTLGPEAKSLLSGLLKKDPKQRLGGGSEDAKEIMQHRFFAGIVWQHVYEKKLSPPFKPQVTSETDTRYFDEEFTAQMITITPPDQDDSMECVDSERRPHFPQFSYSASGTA

[7] = molecular target: CDK9/cyclinT1 (Homo sapiens, UniProt P50750); experiment: biochemical; conditions: read-out: % inhib
Sequence of CDK9/cyclinT1 (P50750 whole entry, species assumed): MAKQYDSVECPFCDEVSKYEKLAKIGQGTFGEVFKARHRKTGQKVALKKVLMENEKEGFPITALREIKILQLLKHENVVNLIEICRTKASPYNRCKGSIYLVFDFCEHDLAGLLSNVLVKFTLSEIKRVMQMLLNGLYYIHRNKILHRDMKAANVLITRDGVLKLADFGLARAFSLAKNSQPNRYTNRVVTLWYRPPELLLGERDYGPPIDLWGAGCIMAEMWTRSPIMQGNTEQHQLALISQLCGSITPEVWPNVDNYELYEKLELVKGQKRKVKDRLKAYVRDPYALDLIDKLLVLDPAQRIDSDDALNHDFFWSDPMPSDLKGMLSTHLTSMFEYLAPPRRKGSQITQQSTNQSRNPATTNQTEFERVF
Sequence of CDK9/cyclinT1 (O60563 whole entry partner, species assumed): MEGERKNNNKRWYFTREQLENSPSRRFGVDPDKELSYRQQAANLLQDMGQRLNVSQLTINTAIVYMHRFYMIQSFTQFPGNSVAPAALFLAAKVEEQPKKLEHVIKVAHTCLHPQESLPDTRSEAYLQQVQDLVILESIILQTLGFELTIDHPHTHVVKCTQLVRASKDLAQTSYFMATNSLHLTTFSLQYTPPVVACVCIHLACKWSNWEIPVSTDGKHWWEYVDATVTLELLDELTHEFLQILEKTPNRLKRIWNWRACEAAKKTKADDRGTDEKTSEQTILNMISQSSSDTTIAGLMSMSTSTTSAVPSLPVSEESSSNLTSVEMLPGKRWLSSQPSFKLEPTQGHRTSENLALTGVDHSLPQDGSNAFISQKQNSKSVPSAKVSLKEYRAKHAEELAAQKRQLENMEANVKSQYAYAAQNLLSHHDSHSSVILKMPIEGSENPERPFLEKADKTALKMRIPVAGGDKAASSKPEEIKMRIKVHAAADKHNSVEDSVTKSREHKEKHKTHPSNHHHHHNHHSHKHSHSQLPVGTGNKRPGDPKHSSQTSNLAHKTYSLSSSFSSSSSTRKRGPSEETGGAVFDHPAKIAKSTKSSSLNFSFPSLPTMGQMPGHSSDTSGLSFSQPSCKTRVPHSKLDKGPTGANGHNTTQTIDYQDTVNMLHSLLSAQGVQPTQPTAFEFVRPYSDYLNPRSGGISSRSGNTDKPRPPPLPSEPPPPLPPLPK

[8] = molecular target: CLK1 (Homo sapiens, UniProt P49759); experiment: biochemical; conditions: read-out: % inhib
Sequence of CLK1 (P49759 whole entry): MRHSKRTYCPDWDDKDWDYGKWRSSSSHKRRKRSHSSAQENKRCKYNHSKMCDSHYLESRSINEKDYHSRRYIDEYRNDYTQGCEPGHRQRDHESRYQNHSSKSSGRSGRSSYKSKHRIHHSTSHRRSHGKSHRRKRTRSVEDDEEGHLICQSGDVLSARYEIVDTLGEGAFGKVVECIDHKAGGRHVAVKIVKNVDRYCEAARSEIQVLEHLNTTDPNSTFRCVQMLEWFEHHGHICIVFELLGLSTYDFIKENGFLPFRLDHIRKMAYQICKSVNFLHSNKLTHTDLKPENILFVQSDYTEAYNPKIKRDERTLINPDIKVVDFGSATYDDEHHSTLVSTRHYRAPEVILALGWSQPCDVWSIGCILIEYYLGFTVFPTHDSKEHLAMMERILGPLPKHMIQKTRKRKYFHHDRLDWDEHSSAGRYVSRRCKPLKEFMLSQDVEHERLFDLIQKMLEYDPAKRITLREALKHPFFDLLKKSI

[9] = molecular target: CSK (Homo sapiens, UniProt P41240); experiment: biochemical; conditions: read-out: % inhib
Sequence of CSK (P41240 whole entry, species assumed): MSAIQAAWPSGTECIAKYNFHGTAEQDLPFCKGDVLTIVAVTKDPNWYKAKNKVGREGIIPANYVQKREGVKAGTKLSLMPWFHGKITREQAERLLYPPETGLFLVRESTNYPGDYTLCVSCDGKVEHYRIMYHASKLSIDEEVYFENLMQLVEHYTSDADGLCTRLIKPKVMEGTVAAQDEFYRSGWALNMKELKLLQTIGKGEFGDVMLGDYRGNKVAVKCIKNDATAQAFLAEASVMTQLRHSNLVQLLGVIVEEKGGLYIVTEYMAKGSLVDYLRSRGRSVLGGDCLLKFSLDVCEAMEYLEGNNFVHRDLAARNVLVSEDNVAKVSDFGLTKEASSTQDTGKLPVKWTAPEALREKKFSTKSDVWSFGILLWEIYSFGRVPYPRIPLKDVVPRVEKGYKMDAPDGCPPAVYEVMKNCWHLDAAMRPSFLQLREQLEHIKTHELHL

[10] = molecular target: CamKIV (Homo sapiens, UniProt Q16566); experiment: biochemical; conditions: read-out: % inhib
Sequence of CamKIV (Q16566 whole entry): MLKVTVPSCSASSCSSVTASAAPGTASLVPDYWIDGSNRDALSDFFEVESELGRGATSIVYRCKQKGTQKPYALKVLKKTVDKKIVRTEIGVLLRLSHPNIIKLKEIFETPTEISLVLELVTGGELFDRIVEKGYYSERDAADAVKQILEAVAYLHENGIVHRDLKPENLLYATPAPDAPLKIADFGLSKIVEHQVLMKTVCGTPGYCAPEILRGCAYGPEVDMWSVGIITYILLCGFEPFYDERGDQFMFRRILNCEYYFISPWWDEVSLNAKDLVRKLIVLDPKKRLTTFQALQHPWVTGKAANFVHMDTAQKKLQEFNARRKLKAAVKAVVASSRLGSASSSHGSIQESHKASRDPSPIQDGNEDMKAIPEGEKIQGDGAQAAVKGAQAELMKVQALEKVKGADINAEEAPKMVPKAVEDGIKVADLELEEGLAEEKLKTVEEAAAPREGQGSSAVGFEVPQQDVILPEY

[11] = molecular target: Flt1 (Homo sapiens, UniProt P17948); experiment: biochemical; conditions: read-out: % inhib
[12] = molecular target: GSK3_beta (Homo sapiens, UniProt P49841); experiment: biochemical; conditions: read-out: % inhib
Sequence of GSK3_beta (P49841 whole entry, species assumed): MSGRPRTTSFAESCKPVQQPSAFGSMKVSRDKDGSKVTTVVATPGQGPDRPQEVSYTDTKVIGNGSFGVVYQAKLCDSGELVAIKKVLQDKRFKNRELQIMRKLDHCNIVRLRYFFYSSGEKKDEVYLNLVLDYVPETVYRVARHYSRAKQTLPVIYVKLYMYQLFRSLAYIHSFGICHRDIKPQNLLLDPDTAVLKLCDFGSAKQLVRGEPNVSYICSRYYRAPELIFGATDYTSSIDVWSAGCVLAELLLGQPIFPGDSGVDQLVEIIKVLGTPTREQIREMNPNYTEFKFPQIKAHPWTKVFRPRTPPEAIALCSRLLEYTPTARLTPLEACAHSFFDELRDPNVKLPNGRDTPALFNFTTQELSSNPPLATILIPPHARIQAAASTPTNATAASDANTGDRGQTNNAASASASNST

[13] = molecular target: MSK2 (Homo sapiens, UniProt O75676); experiment: biochemical; conditions: read-out: % inhib
Sequence of MSK2 (O75676 whole entry, species assumed): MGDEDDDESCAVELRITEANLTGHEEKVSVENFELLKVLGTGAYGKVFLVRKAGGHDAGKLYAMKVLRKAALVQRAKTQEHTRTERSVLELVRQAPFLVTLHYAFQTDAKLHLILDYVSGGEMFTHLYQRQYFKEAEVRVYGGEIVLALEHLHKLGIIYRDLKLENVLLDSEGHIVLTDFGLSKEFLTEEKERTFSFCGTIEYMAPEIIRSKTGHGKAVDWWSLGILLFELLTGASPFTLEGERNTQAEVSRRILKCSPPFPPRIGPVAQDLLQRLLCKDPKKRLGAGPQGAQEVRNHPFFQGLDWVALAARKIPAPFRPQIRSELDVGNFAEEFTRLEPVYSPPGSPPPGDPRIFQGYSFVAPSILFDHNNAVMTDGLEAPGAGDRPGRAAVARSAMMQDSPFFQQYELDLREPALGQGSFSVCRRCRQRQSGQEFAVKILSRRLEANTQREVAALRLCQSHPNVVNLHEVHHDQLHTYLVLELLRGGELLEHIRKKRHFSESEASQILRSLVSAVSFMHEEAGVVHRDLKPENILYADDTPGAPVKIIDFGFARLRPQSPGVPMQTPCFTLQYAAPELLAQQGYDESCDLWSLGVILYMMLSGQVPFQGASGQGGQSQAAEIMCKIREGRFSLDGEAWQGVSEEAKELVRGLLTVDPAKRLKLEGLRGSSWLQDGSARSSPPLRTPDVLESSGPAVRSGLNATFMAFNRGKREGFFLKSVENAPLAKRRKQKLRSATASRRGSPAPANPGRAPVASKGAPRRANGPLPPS

[14] = molecular target: PKC_eta (Homo sapiens, UniProt P24723); experiment: biochemical; conditions: read-out: % inhib

## CC1(C)OCCn2c1nc1c(N3CCOCC3)nc(-c3cnc(N)nc3)nc12 [GDC-0084, 5-(6,6-dimethyl-4-morpholino-8,9-dihydro-6H-[1,4]oxazino[3,4-e]purin-2-yl)pyrimidin-2-amine]
[1]
  MTD: 45 mg
[2]
  Papp A→B at 2 h, 5 μM: 17.6 ± 2.1 ×10⁻⁶ cm/s
[3]; 1 hour post dose
  Suppression of pS6 in brain: 90%
[3]; 6 hours after dosing
  Suppression of pS6 in brain: greater than 70%
[4]; GS2 tumors
  mean pixel intensity (MALDI imaging): 0.34
[4]; normal brain of GS2 tumor-bearing mice
  mean pixel intensity (MALDI imaging): 0.55
[5]; DMF
  Solubility: 0.9 wt. %
[5]; DMF/HOAc/H2O 67:24:9 by volume
  Solubility: 0.3 wt. %
[5]; EtOH
  Solubility: 0.1 wt. %
[5]; EtOH/HOAc/H2O 67:24:9 by volume
  Solubility: 1 wt. %
[5]; HOAc
  Solubility: 2.8 wt. %
[5]; HOAc/HOAc/H2O 67:24:9 by volume
  Solubility: 2.1 wt. %
[5]; MeOH
  Solubility: 0.2 wt. %
[5]; MeOH/HOAc/H2O 67:24:9 by volume
  Solubility: 0.4 wt. %
[5]; MeTHF
  Solubility: 0.3 wt. %
[5]; MeTHF/HOAc/H2O 67:24:9 by volume
  Solubility: 2.7 wt. %
[5]; PhMe
  Solubility: 0.1 wt. %
[5]; THF
  Solubility: 0.7 wt. %
[5]; THF/HOAc/H2O 67:24:9 by volume
  Solubility: 3.7 wt. %
[5]; Toluene/HOAc/H2O 67:24:9 by volume
  Solubility: 3.8 wt. %
[5]; i-BuOH
  Solubility: 0.1 wt. %
[5]; i-BuOHHOAcH2O 67:24:9 by volume
  Solubility: 2.1 wt. %
[5]; n-BuOH
  Solubility: 0.1 wt. %
[5]; n-BuOH/HOAc/H2O 67:24:9 by volume
  Solubility: 2.4 wt. %
[5]; n-PrOH
  Solubility: 0.1 wt. %
[5]; n-PrOH/HOAc/H2O 67:24:9 by volume
  Solubility: 1.8 wt. %
[6]
  inhibition at 1 µM: 0.7%
[7]
  inhibition at 1 µM: -0.9%
[8]
  inhibition at 1 µM: 4%
[9]
  inhibition at 1 µM: 10%
[10]
  inhibition at 1 µM: 0.2%
[11]
  inhibition at 1 µM: 0.6%
[12]
  inhibition at 1 µM: 1%
[13]
  inhibition at 1 µM: 0.6%
[14]
  inhibition at 1 µM: -9%
